For data set [1] the following is noted: in combination with cyclosporine; cited from earlier work.
For data set [2] the following is noted: patients; cited from earlier work.
Data set [3] deals with CD11b mRNA expression in THP-1. In words: CD11b mRNA expression in THP-1 cell lines (Real-Time PCR). It is filed as cell-based. The conditions noted are these: THP-1, 3 μM, 72 hours. Here is the method: THP-1 cells were plated in complete media at pre-determined density in 6-well plates and the cells were treated with Compound A for 72 hours. mRNA was isolated using TRI reagent according to the manufacturer's protocol (TRI Reagent from Sigma). cDNA was synthesized using cDNA Synthesis kit according to manufacturer's protocol (First Strand cDNA Synthesis kit) and Real-Time PCR was performed. Data was calculated using delta delta Ct method. Fold change in mRNA expression was plotted using GraphPad Prism (Version 5.02)

Data set [4] concerns MV411. Briefly: Anti-proliferative effect with uridine rescue (MTT assay). The conditions noted are these: Homo sapiens, MV4-11, 72 h. Type of data set: cell-based. Here is the method: (§1) Compound A was tested in the absence of Uridine (U937, HL-60, THP-1 and MV411 cell lines) or in the presence of Uridine (100 μM for U937, HL-60 and MV411 and 300 μM for THP-1). Cells were plated in 96-well plates and incubated with desired concentrations of Compound A for 72 h. At the end of the incubation period, MTT ((3-(4,5-dimethylthiazol-2-yl)-2,5-diphenyltetrazolium bromide)) was added. The plates were placed on a shaker for 5 min to mix the formazan and the optical density at 560 nm was measured on a spectrophotometer. Data were plotted using Graphpad prism for calculation of the GI50 concentrations.

For the next data set, the system named is HL-60. The description is as above. It is filed as cell-based. The note with it: Homo sapiens, 72 h. As for the experimental part:
as §1

The test system of data set [5] is THP-1. Described as above. It is filed as cell-based. The conditions noted are these: Homo sapiens, 72 h. As for the experimental part: as §1
In data set [6] the test system is U937. The data set is described as above. Type of data set: cell-based. The conditions noted are these: Homo sapiens, U-937, 72 h. As for the experimental part: as §1
Data set [7] deals with MV411. Briefly: Anti-proliferative effect in AML cell lines (MTT assay). The note with it: Homo sapiens, MV4-11, MV411, 72 h. Type of data set: cell-based. As for the experimental part:
(§2) Compound A was tested across a panel of AML cell lines (U937, HL-60, THP-1, KG-1 and MV411). Cells were plated in 96-well plates and incubated with desired concentrations of Compound A for 72 hours (h). At the end of the incubation period, MTT ((3-(4,5-dimethylthiazol-2-yl)-2,5-diphenyltetrazolium bromide)) was added. The plates were placed on a shaker for 5 min to mix the formazan and the optical density at 560 nm was measured on a spectrophotometer. Data were plotted using Graphpad prism for calculation of the GI50 concentrations.

Data set [8] deals with THP-1. The description is as above. The note with it: Homo sapiens, THP-1, 72 h. It is filed as cell-based. As for the experimental part:
as §2

The next data set concerns HL60. The description is as above. Type of data set: cell-based. The note with it: Homo sapiens, HL-60, HL60, 72 h. Here is the method:
as §2

The subject of data set [9] is U937. The description is as above. Type of data set: cell-based. The note with it: Homo sapiens, U-937, U937, 72 h. As for the experimental part:
as §2

For the next data set, the system named is KG-1. The description is as above. It is filed as cell-based. The note with it: Homo sapiens, KG-1, 72 h. Here is the method: as §2
Data set [10] concerns AML cell lines (U937, HL-60, THP-1, KG-1 and MV411). In words: Anti-proliferative effect across panel of AML cell lines (MTT assay). It is filed as cell-based. The note with it: U937, HL-60, THP-1, KG-1, MV411; 72 h; read-out: GI50 range over all AML cell lines tested. Here is the method: as §2
For orientation: Formazan colour is commonly taken as a measure of viable cells.

For another data set, the system named is AML cell line U937. In words: Anti-proliferative effect in combination with gilteritinib (MTT assay). Type of data set: cell-based. As for the experimental part: (§3) Compound A (at 3 μM) and gilteritinib (1.5 μM) was tested in AML cell line U937. Cells were plated in 96-well plates and incubated with desired concentrations of Compound A for 72 h. At the end of the incubation period, MTT ((3-(4,5-dimethylthiazol-2-yl)-2,5-diphenyltetrazolium bromide)) was added. The plates were placed on a shaker for 5 min to mix the formazan and the optical density at 560 nm was measured on a spectrophotometer. Data were plotted using Graphpad prism for calculation of the percentage inhibition to determine the effect of Compound A as a single agent or in combination with gilteritinib.

For data set [11], the system named is CD11b expression in THP-1. In words: CD11b cell surface expression (flow cytometry). Type of data set: cell-based. The note with it: THP-1, 5 μM, 96 hours. Here is the method:
(§4) Cells were plated in complete media at pre-determined density in 6-well plates and the cells were treated with Compound A 96 hours for THP-1 cell lines and 72 hours for MV411 cell lines) in the presence or absence of uridine. The cells were stained with CD11b Antibody PE according to manufacturer's protocol (CD11b Monoclonal Antibody (ICRF44), PE, eBioscience) and the cells were acquired and analysed by flow cytometry (Guava Easycyte).
(In general: In flow cytometry, cells or beads pass a laser one at a time.)

Data set [12] concerns CD11b expression in MV411. Briefly: CD11b cell surface expression (flow cytometry). It is filed as cell-based. The conditions noted are these: MV411, 3 μM, 72 hours. Here is the method: as §4
Another data set concerns MV411 xenograft. Briefly: MV411 mouse xenograft model. It is filed as in vivo. As for the experimental part: The effect of Compound A was determined in a MV411 mouse xenograft model. Briefly, 5×10^6 cells were injected into the right flank region by Subcutaneous administration under sterile condition. The oral administration of Compound (A) at 30 mg/kg/BID for 21 days. The tumors were measured using a calliper in two dimensions, length (a) and width (b). Tumor volumes were estimated from measurements of the two diameters of the individual tumors as follows: Tumor Volume (mm3)=(a×b2)/2. At the end of the study period, animals were sacrificed and the tumors harvested.

Data set [13] relates to AML cell lines (U937, HL-60, THP-1 and MV411). Briefly: Anti-proliferative effect with uridine rescue, AML cell lines together (MTT assay). It is filed as cell-based. As for the experimental part:
as §1

The test system of another data set is AML cell line THP-1. Briefly: Anti-proliferative effect in combination with gilteritinib (MTT assay). Type of data set: cell-based. As for the experimental part:
as §3, with “Gilteritinib (0.25” for “gilteritinib (1.5”, “THP-1.” for “U937.”

[14] abbreviates: Homo sapiens, U-937, U937, 72 h, Compound A 3 μM, gilteritinib 1.5 μM, read-out: % inhibition of cell growth.
Where [15] appears, read: Homo sapiens, THP-1, 72 h, Compound A 3 μM, Gilteritinib 0.25 μM, read-out: % inhibition of cell growth.

Each structure is given as a SMILES string. Read-outs that look alike come from different tables or passages of the source.

We go through four molecules from patent US20220387362A1, “COMPOSITIONS COMPRISING A DHODH INHIBITOR FOR THE TREATMENT OF ACUTE MYELOID LEUKEMIA” (RHIZEN PHARMACEUTICALS AG, priority 2019, published 2022).

Turning to `Cc1c(-c2ccc(-c3ccccc3F)cc2)nc2ccc(F)cc2c1C(=O)O` [brequinar], in data set [1], the “toxic effects on oral administration” value was “toxic effects, including leukocytopenia and thrombocytopenia”.
`Cc1oncc1C(=O)Nc1ccc(C(F)(F)F)cc1` [leflunomide]: the half-life time entry in data set [2] is listed as “approximately 2 weeks”.
One may read the GI50 as the concentration at which growth is held to half of that of the control. One may read the inhibition as the percentage by which the read-out fell short of the control. For orientation: melting point means the temperature, or range, at which the solid turns liquid. Molecule `CCCCOc1cccc(-c2cc(F)c(NC(=O)c3ccccc3C(=O)O)c(Cl)c2)c1` [Compound A, 2-(3′-butoxy-3-chloro-5-fluorobiphenyl-4-ylcarbamoyl)benzoic acid] displayed a melting point of 128 to 130 °C. Besides, the “induction of CD11b gene expression” value in data set [3] is reported as 80 fold. Moreover, the 50% growth inhibitory concentration (GI50) with MV411 [4] (MV411, 100 μM uridine) is greater than 10 µM. This molecule also had a GI50 in the data set with MV411 [4] (MV411, absence of uridine) of 2.6 µM. For the same molecule, in the data set with HL-60 (HL-60, 100 μM uridine), the GI50 is greater than 10 µM. Further, the GI50 in the data set with HL-60 (HL-60, absence of uridine) was found to be 3.6 µM. The GI50 with THP-1 [5] (THP-1, 300 μM uridine) was greater than 10 µM. The molecule also gave a GI50 in the data set on THP-1 [5] (THP-1, absence of uridine) of 2 µM. Moreover, the concentration for 50% growth inhibition (GI50) in the data set on U937 [6] (U937, 100 μM uridine) was greater than 10 µM. Growth with U937 [6] (U937, absence of uridine) was halved (GI50) at 3.2 µM. Besides, the GI50 in the data set on MV411 [7] worked out at 2.5 µM. Moreover, halving of growth in the data set on THP-1 [8] (GI50) required 2.5 µM. This molecule also yielded a 50% growth inhibitory concentration (GI50) in the data set on HL60 of 3.5 µM. In addition, in the data set on U937 [9], the GI50 stood at 2.4 µM. The molecule also gave a GI50 in the data set on KG-1 of 7.6 µM. In addition, the GI50 in data set [10] lay within 2.4 to 7.6 µM. Moreover, the inhibition at 3 µM in the data set with AML cell line U937 (setting [14]) amounted to 41.4%. Besides, the “effect on activity of gilteritinib (cell growth inhibition)” value with AML cell line U937 (U937, p<0.05) was “potentiated”. Moreover, in data set [11] (with uridine), the “CD11b cell surface expression after addition of uridine” value is reported as 15%. The “CD11b cell surface expression, % of cell population” value in data set [11] (without uridine) is listed as 40%. In addition, in data set [12], the “CD11b cell surface expression, % of cell population” value came out at 35%. In the data set on MV411 xenograft (Compound A 30 mg/kg/BID oral 21 days, combination with cytarabine 20 mg/Kg), the tumor growth inhibition turned out to be 37%. Besides, the “adverse events or body weight changes” value with MV411 xenograft (throughout the study period, MV411 xenograft mice) was “No adverse events or body weight changes were observed”. Besides, the 50% growth inhibitory concentration (GI50) in data set [13] (100 μM or 300 μM uridine, read-out: GI50 over AML cell lines with addition of uridine) is greater than 10 µM. For the same molecule, in data set [13] (U937, HL-60, THP-1, MV411, no uridine, read-out: GI50 range over AML cell lines, without uridine), the 50% growth inhibitory concentration (GI50) was in the range of 2 to 3.2 µM. For the same molecule, the inhibition at 3 µM with AML cell line THP-1 (setting [15]) amounted to 35.8%. For the same molecule, the “effect on activity of gilteritinib (cell growth inhibition)” value in the data set with AML cell line THP-1 (THP-1, p<0.05) is “potentiated”.
Consider `CCc1nc(C(N)=O)c(Nc2ccc(N3CCC(N4CCN(C)CC4)CC3)c(OC)c2)nc1NC1CCOCC1` [Gilteritinib, reference compound], for which the inhibition at 1.5 µM in the data set with AML cell line U937 (setting [14]) came out at 41.7%. Besides, the inhibition at 0.25 µM in the data set on AML cell line THP-1 (setting [15]) is 40.1%.
